Results: ChEMBL document CHEMBL1201862, “PubChem BioAssay data set” (2004)
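A five-concentration, 48-hour dose response in 96-well plates underlies each endpoint, interpolated linearly between surrounding concentrations. The concentration for 50% growth inhibition is given as GI50.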 The source made the active and inactive calls. No stated cut-off is given here; in the data, active = GI50 up to about 1.1 µM and inactive = higher. Where a SMILES comes first, the peptide text is derived from it. The star is where a group is joined. Cbz = O=C(OCc1ccccc1)*

What was measured:
Assay in all cases: NCI-60 cell line screen, 48 h
[1] = test system: 786-0
[2] = test system: CAKI-1
[3] = test system: COLO 205
[4] = test system: Hs-578T
[5] = test system: IGROV-1
[6] = test system: KM12
[7] = test system: MOLT-4
[8] = test system: Malme-3M
[9] = test system: NCI-H23
[10] = test system: OVCAR-3
[11] = test system: RPMI-8226
[12] = test system: SF-539
[13] = test system: SK-MEL-28
[14] = test system: SK-MEL-2
[15] = test system: SK-MEL-5
[16] = test system: SK-OV-3
[17] = test system: SW-620
[18] = test system: UACC-257
[19] = test system: UACC-62

Row | SMILES | GI50 [1] | GI50 [2] | GI50 [3] | GI50 [4] | GI50 [5] | GI50 [6] | GI50 [7] | GI50 [8] | GI50 [9] | GI50 [10] | GI50 [11] | GI50 [12] | GI50 [13] | GI50 [14] | GI50 [15] | GI50 [16] | GI50 [17] | GI50 [18] | GI50 [19]
1 | CCOC(=O)CCC(NC(=O)C(Cc1ccccc1)NC(=O)OCc1ccccc1)C(=O)OCC (stereo not drawn) (Cbz-Phe-Glu(OEt)-OEt; configuration not given here) | 18.1 µM (inactive) | 16.7 µM (inactive) | 19.4 µM (inactive) | 14.8 µM (inactive) | 18.1 µM (inactive) | 17 µM (inactive) | 30.2 µM (inactive) | 17.4 µM (inactive) | 17 µM (inactive) | 15.3 µM (inactive) | 35 µM (inactive) | 20.3 µM (inactive) | 17.9 µM (inactive) | 22.3 µM (inactive) | 15.5 µM (inactive) | 16.6 µM (inactive) | 18.2 µM (inactive) | 16.9 µM (inactive) | 17.9 µM (inactive)
2 | Cc1ccc(S(=O)(=O)OC2CN3CCC2CC3)cc1 (centres undefined) | > 100 µM (inactive) | > 100 µM (inactive) | > 100 µM (inactive) | > 100 µM (inactive) | > 100 µM (inactive) | > 100 µM (inactive) | > 100 µM (inactive) | > 100 µM (inactive) | > 100 µM (inactive) | > 100 µM (inactive) | > 100 µM (inactive) | > 100 µM (inactive) | > 100 µM (inactive) | > 100 µM (inactive) | > 100 µM (inactive) | > 100 µM (inactive) | > 100 µM (inactive) | > 100 µM (inactive) | > 100 µM (inactive)
3 | CN(C)c1ccc(/N=N\c2cccc3ccoc23)cc1 | > 100 µM (inactive) | > 62.4 µM (inactive) | > 82.8 µM (inactive) | > 100 µM (inactive) | > 70.3 µM (inactive) | > 73.1 µM (inactive) | 17.1 µM (inactive) | > 100 µM (inactive) | > 68.7 µM (inactive) | 38.4 µM (inactive) | 52.2 µM (inactive) | > 100 µM (inactive) | > 100 µM (inactive) | > 100 µM (inactive) | 43.4 µM (inactive) | > 100 µM (inactive) | 50.8 µM (inactive) | > 60.7 µM (inactive) | > 100 µM (inactive)
4 | CN(C)CC1CCC/C(=C\c2ccc(OC(=O)/C=C/c3ccc(Cl)c(Cl)c3)cc2)C1=O (centres undefined) | 1.83 µM (inactive) | 2.26 µM (inactive) | 1.83 µM (inactive) | 4.21 µM (inactive) | 1.47 µM (inactive) | 1.61 µM (inactive) | 1.66 µM (inactive) | 5.4 µM (inactive) | 3.77 µM (inactive) | 3.48 µM (inactive) | 0.164 µM (active) | 2.59 µM (inactive) | 7.8 µM (inactive) | 15.9 µM (inactive) | 4.09 µM (inactive) | 37.3 µM (inactive) | 2.75 µM (inactive) | 9.91 µM (inactive) | 12.3 µM (inactive)
5 | OCC(CCc1c[nH]c2ccccc12)c1c[nH]c2ccccc12 (centres undefined) | 16 µM (inactive) | 26.1 µM (inactive) | 16.9 µM (inactive) | 20.8 µM (inactive) | 12.7 µM (inactive) | 15.9 µM (inactive) | 14.5 µM (inactive) | 17 µM (inactive) | 15.6 µM (inactive) | 27.3 µM (inactive) | 27 µM (inactive) | 18.4 µM (inactive) | 20.5 µM (inactive) | 16.5 µM (inactive) | 16.8 µM (inactive) | 30.5 µM (inactive) | 15.7 µM (inactive) | 11.6 µM (inactive) | 14.1 µM (inactive)
6 | N#Cc1cnn2c1n[n+]([O-])c1ccc(Cl)cc12 | 27.4 µM (inactive) | 1.26 µM (inactive) | 16.6 µM (inactive) | 5.3 µM (inactive) | 4.14 µM (inactive) | 25.6 µM (inactive) | 7.31 µM (inactive) | 7.69 µM (inactive) | 5.7 µM (inactive) | 2.96 µM (inactive) | 23.8 µM (inactive) | 18.2 µM (inactive) | 13.2 µM (inactive) | 7.31 µM (inactive) | 12.4 µM (inactive) | 8.61 µM (inactive) | 9.14 µM (inactive) | 9.35 µM (inactive) | 4.49 µM (inactive)
